Each structure is given as a SMILES string.

A word on the chromatographic logP: it is lipophilicity estimated from chromatographic retention. Read a low chromatographic logP as lower lipophilicity.

Data set [1] has as its system L1 larvae of the Australian sheep blowfly (Lucilia cuprina). As to the kind of experiment: Lucilia cuprina test. The conditions noted are these: 48 h, 100 ppm, after 2 days, read-out: efficacy (kill). The class given is in vivo. How it is done:
(§1) Solvent: dimethyl sulfoxide
(§2) To produce a suitable active compound formulation, 10 mg of active compound are mixed with 0.5 ml of dimethyl sulfoxide, and the concentrate is diluted with water to the desired concentration.
About 20 L1 larvae of the Australian sheep blowfly (Lucilia cuprina) are transferred into a test vessel containing minced horsemeat and the active compound formulation of the desired concentration.
After 2 days, the kill in % is determined. 100% means that all the larvae have been killed; 0% means that no larvae have been killed.

Data set [2] relates to adult cat fleas (Ctenocephalides felis). As to the kind of experiment: Ctenocephalides felis oral test. The class given is in vivo. The conditions noted are these: 48 h, 100 ppm in citrated cattle blood, after 2 days, read-out: efficacy (kill). On the procedure:
as §1
To produce a suitable active compound formulation, 10 mg of active compound are mixed with 0.5 ml of dimethyl sulfoxide. Dilution with citrated cattle blood gives the desired concentration.
About 20 unfed adult cat fleas (Ctenocephalides felis) are placed into a chamber which is closed at the top and bottom with gauze. A metal cylinder whose bottom end is closed with parafilm is placed onto the chamber. The cylinder contains the blood/active compound formulation, which can be imbibed by the fleas through the parafilm membrane.
After 2 days, the kill in % is determined. 100% means that all of the fleas have been killed; 0% means that none of the fleas have been killed.

For data set [3] the test system is unchanged. As to the kind of experiment: Ctenocephalides felis in vitro contact test with adult cat fleas. The format is in vivo. The conditions noted are these: application rate 5 μg/cm^2 (=500 g/ha), after 48 h, dead or moribund fleas. How it is done:
For the coating of the test tubes, 9 mg of active compound are first dissolved in 1 ml of acetone p.a. and then diluted to the desired concentration with acetone p.a. 250 μl of the solution are distributed homogeneously on the inner walls and the base of a 25 ml glass tube by turning and rocking on an orbital shaker (rocking rotation at 30 rpm for 2 h). With 900 ppm of active compound solution and internal surface area 44.7 cm^2, given homogeneous distribution, an area-based dose of 5 μg/cm^2 is achieved.
After the solvent has evaporated off, the tubes are populated with 5-10 adult cat fleas (Ctenocephalides felis), sealed with a perforated plastic lid and incubated in a horizontal position at room temperature and ambient humidity. After 48 h, efficacy is determined. To this end, the tubes are stood upright and the fleas are knocked to the base of the tube. Fleas which remain motionless at the base or move in an uncoordinated manner are considered to be dead or moribund.
100% efficacy means that all the fleas were dead or moribund. 0% efficacy means that no fleas were harmed.

In data set [4] the test system is green peach aphids (Myzus persicae). As to the kind of experiment: Myzus persicae oral test. The conditions noted are these: 120 h, 4 ppm, after 5 days, read-out: efficacy. The class given is in vivo. On the procedure:
Solvent: 100 parts by weight of acetone
To produce a suitable active compound formulation, 1 part by weight of active compound is dissolved with the stated parts by weight of solvent and made up to the desired concentration with water.
50 μl of the active compound formulation are transferred into microtitre plates and made up to a final volume of 200 μl with 150 μl of IPL41 insect medium (33%+15% sugar). Subsequently, the plates are sealed with parafilm, which a mixed population of green peach aphids (Myzus persicae) within a second microtitre plate is able to puncture and imbibe the solution.
(§3) After 5 days, the efficacy in % is determined. 100% means that all the aphids have been killed; 0% means that no aphids have been killed.

The subject of data set [5] is adult houseflies (Musca domestica). As to the kind of experiment: Musca domestica test. The class given is in vivo. The conditions noted are these: after 2 days. How it is done: as §1, §2
Vessels containing a sponge treated with sugar solution and the desired concentration of active compound formulation are populated with 10 adult houseflies (Musca domestica).
After 2 days, the kill in % is determined. 100% means that all of the flies have been killed; 0% means that none of the flies have been killed.

Data set [6] is described as follows: logP by HPLC on reversed-phase column (C18), acidic range. The class given is physicochemical. The conditions noted are these: reversed-phase HPLC column (C18), formic acid in water/acetonitrile. On the procedure:
The logP values were determined according to EEC Directive 79/831 Annex V.A8 by HPLC (high-performance liquid chromatography) on a reversed-phase column (C18) using the following methods:
Calibration was carried out using a homologous series of straight-chain alkan-2-ones (having 3 to 16 carbon atoms) with known logP values. The values between successive alkanones are determined by linear regression.

Data set [7] relates to caterpillars of the fall armyworm (Spodoptera frugiperda). As to the kind of experiment: Spodoptera frugiperda spray test. The class given is in vivo. The conditions noted are these: foliar, 168 h, 100 g/ha, after 7 days, maize leaf discs, read-out: efficacy. On the procedure:
(§4) Solvent: 78.0 parts by weight of acetone • • 1.5 parts by weight of dimethylformamide
(§5) Emulsifier: alkylaryl polyglycol ether
(§6) To produce a suitable active compound formulation, 1 part by weight of active compound is dissolved with the specified parts by weight of solvent and made up to the desired concentration with water containing an emulsifier concentration of 1000 ppm. To produce further test concentrations, the formulation is diluted with emulsifier-containing water.
Leaf discs of maize (Zea mays) are sprayed with an active compound formulation of the desired concentration and, after drying, populated with caterpillars of the fall armyworm (Spodoptera frugiperda).
After 7 days, the efficacy in % is determined. 100% means that all the caterpillars have been killed; 0% means that no caterpillar has been killed.

Data set [8] relates to engorged adult female cattle ticks (Boophilus microplus). As to the kind of experiment: Boophilus microplus injection test. The format is in vivo. The conditions noted are these: 20 μg/animal, injection into abdomen. On the procedure: as §1
To produce a suitable active compound formulation, 10 mg of active compound are mixed with 0.5 ml of solvent and the concentrate is diluted to the desired concentration with solvent.
1 μl of the active compound solution is injected into the abdomen of 5 engorged adult female cattle ticks (Boophilus microplus). The animals are transferred into dishes and kept in a climate-controlled room.
The activity is assessed after the desired time by laying of fertile eggs. Eggs which are not visibly fertile are stored in a climate-controlled cabinet until the larvae hatch after about 42 days. An efficacy of 100% means that none of the ticks has laid any fertile eggs; 0% means that all the eggs are fertile.

Data set [9] relates to larvae of the mustard beetle (Phaedon cochleariae). As to the kind of experiment: Phaedon cochleariae spray test. The conditions noted are these: foliar, 168 h, 100 g/ha, after 7 days, Chinese cabbage leaf discs, read-out: efficacy. The format is in vivo. On the procedure: as §4, §5, §6
Discs of Chinese cabbage leaves (Brassica pekinensis) are sprayed with an active compound formulation of the desired concentration and, after drying, populated with larvae of the mustard beetle (Phaedon cochleariae).
After 7 days, the efficacy in % is determined. 100% means that all the beetle larvae have been killed; 0% means that no beetle larvae have been killed.

Data set [10] deals with southern root-knot nematode (Meloidogyne incognita). As to the kind of experiment: Meloidogyne incognita test. The format is in vivo. The conditions noted are these: 20 ppm, after 14 days, lettuce. On the procedure: Solvent: 125.0 parts by weight of acetone
To produce a suitable active compound formulation, 1 part by weight of active compound is mixed with the stated amount of solvent and the concentrate is diluted to the desired concentration with water.
Vessels are filled with sand, active compound solution, an egg/larvae suspension of the southern root-knot nematode (Meloidogyne incognita) and lettuce seeds. The lettuce seeds germinate and the plants develop. The galls develop on the roots.
After 14 days, the nematicidal efficacy in % is determined by the formation of galls. 100% means that no galls were found; 0% means that the number of galls on the treated plants corresponds to the untreated control.

Data set [11] deals with green peach aphid (Myzus persicae). As to the kind of experiment: Myzus persicae spray test. The format is in vivo. The conditions noted are these: foliar, 120 h, 100 g/ha, after 5 days, Chinese cabbage leaf discs, read-out: efficacy. How it is done: Solvent: 78 parts by weight of acetone • • 1.5 parts by weight of dimethylformamide
as §5, §6
Discs of Chinese cabbage leaves (Brassica pekinensis) infested by all stages of the green peach aphid (Myzus persicae) are sprayed with an active compound formulation of the desired concentration.
as §3

For the compound `CCS(=O)(=O)c1c(-c2nc3cc(C(F)(F)F)cnc3n2C)nc2cc(NS(=O)(=O)NC3CC3)ccn12` [Example I-07, N-Cyclopropyl-N′-{3-(ethylsulfonyl)-2-[3-methyl-6-(trifluoromethyl)-3H-imidazo[4,5-b]pyridin-2-yl]imidazo[1,2-a]pyridin-7-yl}sulfurdiamide], the pest or weed control at 100 ppm in data set [1] and in data set [2] was 100% in each case. The compound also showed an efficacy in data set [3] of 100%. Moreover, the pest or weed control at 4 ppm in data set [4] was 100%. In [5] (100 ppm), the “efficacy (kill)” value is given as 80%. Further, the chromatographic logP in data set [6] was determined as 2.55.
Turning to `CCS(=O)(=O)c1c(-c2nc3cc(C(F)(F)F)cnc3n2C)nc2cc(C(F)(F)C3CC3)ccn12` [Example I-21], the pest or weed control at 100 g/ha in data set [7] and in data set [9] was 100% each time. In addition, the “efficacy (no laying of fertile eggs)” value in [8] is 90%. The pest or weed control at 100 ppm in data set [2] came out at 100%.
For the compound `CCS(=O)(=O)c1c(-c2nc3cc(C(F)(F)F)cnc3n2C)nc2cc(NC(=S)NC3CC3)ccn12` [Example I-05, 1-Cyclopropyl-3-{3-(ethylsulfonyl)-2-[3-methyl-6-(trifluoromethyl)-3H-imidazo[4,5-b]pyridin-2-yl]imidazo [1,2-a]pyridin-7-yl}thiourea], the “nematicidal efficacy (formation of galls)” value in data set [10] is listed as 90%. Further, the pest or weed control at 100 ppm in data set [1] and in data set [2] was 100% in each case. Further, the pest or weed control at 100 g/ha in data set [7] came out at 100%; in data set [11] it was 90%; in data set [9], 100%. Besides, the pest or weed control at 4 ppm in data set [4] is 100%. The “efficacy (kill)” value in data set [5] (100 ppm) was found to be 100%. For the same compound, the chromatographic logP in [6] was determined as 2.71.
As to `CCS(=O)(=O)c1c(-c2nc3cc(C(F)(F)F)cnc3n2C)nc2cc(S(=O)(=O)C3CC3)ccn12` [Example I-09, 2-[7-(Cyclopropylsulfonyl)-3-(ethylsulfonyl)imidazo[1,2-a]pyridin-2-yl]-3-methyl-6-(trifluoromethyl)-3H-imidazo[4,5-b]pyridine], the pest or weed control at 100 ppm in data set [1] and in data set [2] was 100% each time. The pest or weed control at 100 g/ha in data set [7] stood at 100%; in [11], 90%; in [9] it was 100%. The compound further yielded an efficacy in [3] of 100%. In [4], the pest or weed control at 4 ppm is 100%. In addition, the “efficacy (kill)” value in [5] (20 ppm) stood at 80%. In [6], this compound had a chromatographic logP of 2.89.
For `CCS(=O)(=O)c1c(-c2nc3cc(SC(F)(F)F)cnc3n2C)nc2cc(S(=O)(=O)C3CC3)ccn12` [Example I-12], the pest or weed control at 100 g/ha in data set [7], in data set [11] and in data set [9] was 100% throughout. Moreover, the pest or weed control at 100 ppm in data set [2] was 100%. Besides, the pest or weed control at 4 ppm in data set [4] amounted to 100%. In data set [5] (100 ppm), the “efficacy (kill)” value worked out at 100%.
`CCS(=O)(=O)c1c(-c2nc3cc(C(F)(F)F)cnc3n2C)nc2cc(C(=O)C3CC3)ccn12` [Example I-20]: the pest or weed control at 100 g/ha in data set [7] and in data set [9] was 100% each time. In addition, the “efficacy (no laying of fertile eggs)” value in data set [8] stood at 80%.
For the compound `CCS(=O)(=O)c1c(-c2nc3cc(C(F)(F)F)cnc3n2C)nc2cc(NC(=O)C3CC3)ccn12` [Example I-01], the pest or weed control at 100 ppm in [1] and in [2] was 100% throughout. The pest or weed control at 100 g/ha in data set [7] was found to be 100%; in data set [11] it was 90%; in [9], 100%. In addition, the efficacy in data set [3] was determined as 100%. Moreover, the pest or weed control at 4 ppm in data set [4] was 100%. In addition, the “efficacy (kill)” value in data set [5] (100 ppm) is recorded as 80%.
